The source of these data is US20230234942A1, “COMPOUNDS FOR TREATING HUNTINGTON'S DISEASE” (PTC Therapeutics, Inc., priority 2020, published 2023).

The subject of one test is Endogenous Huntingtin Protein. The experiment in a line: Endogenous Huntingtin Protein Assay (ELISA-based MSD electrochemiluminescence). The test is classed as cell-based. As to conditions: Table 2; MSD plates coated with MW1 (expanded polyglutamine) or MAB2166 capture antibody; "inactive" = result above the detection limit of the assay. In short, it runs like this: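 Endogenous huntingtin measured on MSD plates coated with MW1 (polyglutamine-expanded) or MAB2166 capture antibody; lysates bound overnight at 4 °C. Signal developed with #56565 rabbit monoclonal and goat anti-rabbit SULFO-TAG (0.25 µg/mL, 1 h RT each), electrochemiluminescence read on SI 6000.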
The term IC50 denotes the point on the concentration scale where inhibition reaches its midpoint. The compound `Cc1cc2nc(-c3ccc(-c4cnc(N5C[C@@H](C)N[C@@H](C)C5)nn4)c(O)c3)sc2c(C)n1` [Cpd 116, 2-{3-[(3R,5S)-3,5-dimethylpiperazin-1-yl]-1,2,4-triazin-6-yl}-5-(4,6-dimethyl[1,3]thiazolo[5,4-c]pyridin-2-yl)phenol] came in with an IC50 of 678 nM. Consider `Cn1nc2cnc(-c3ccc(-c4cnc(N5CCN[C@@H](C6CC6)C5)nn4)c(O)c3)cc2n1` [Cpd 172, 2-{3-[(3S)-3-cyclopropylpiperazin-1-yl]-1,2,4-triazin-6-yl}-5-(2-methyl-2H-[1,2,3]triazolo[4,5-c]pyridin-6-yl)phenol], for which the IC50 is 4 nM. Compound `Cc1nc2n(n1)CCN(c1ccc(-c3cnc(N4CCN[C@@H](C(C)C)C4)nn3)c(O)c1)C2` [Cpd 274, 5-(2-methyl-5,6-dihydro[1,2,4]triazolo[1,5-a]pyrazin-7(8H)-yl)-2-{3-[(3S)-3-(propan-2-yl)piperazin-1-yl]-1,2,4-triazin-6-yl}phenol] yielded an IC50 of 291 nM.

Compound `C[C@H]1CN(c2ncc(-c3ccc(-c4cn[nH]c4)cc3O)nn2)CCN1` [Cpd 165, 2-{3-[(3S)-3-methylpiperazin-1-yl]-1,2,4-triazin-6-yl}-5-(1H-pyrazol-4-yl)phenol] gave an IC50 of 124 nM.

`CC(C)C1CN(c2ncc(-c3ccc(-c4cnn(C)c4)cc3O)nn2)CCN1` (stereo not shown) [Cpd 35, 5-(1-methyl-1H-pyrazol-4-yl)-2-{3-[3-(propan-2-yl)piperazin-1-yl]-1,2,4-triazin-6-yl}phenol]: inhibition was half-maximal at 46.1 nM (IC50). `[2H]C([2H])([2H])Oc1cc(-c2ccc(-c3cnc(N4CCN[C@@H](C(C)C)C4)nn3)c(O)c2)ncn1` [Cpd 10, 5-{6-[(^2H3)methyloxy]pyrimidin-4-yl}-2-{3-[(3S)-3-(propan-2-yl)piperazin-1-yl]-1,2,4-triazin-6-yl}phenol] gave an IC50 of 9.5 nM. In turn, `Oc1cc(-n2nccn2)ccc1-c1cnc(N2CCN[C@@H](C3CC3)C2)nn1` [Cpd 11, 2-{3-[(3S)-3-cyclopropylpiperazin-1-yl]-1,2,4-triazin-6-yl}-5-(2H-1,2,3-triazol-2-yl)phenol] registered an IC50 of 9.6 nM. The compound `C[C@@H]1CN(c2ncc(-c3ccc(-n4nccn4)cc3O)nn2)C[C@H](C)N1` [Cpd 54, 2-{3-[(3R,5S)-3,5-dimethylpiperazin-1-yl]-1,2,4-triazin-6-yl}-5-(2H-1,2,3-triazol-2-yl)phenol] had an IC50 of 440 nM.

Compound `CC(C)[C@H]1CN(c2ncc(-c3ccc(-c4nc(C(F)F)cs4)cc3O)nn2)CCN1` [Cpd 186, 5-[4-(difluoromethyl)-1,3-thiazol-2-yl]-2-{3-[(3S)-3-(propan-2-yl)piperazin-1-yl]-1,2,4-triazin-6-yl}phenol] displayed an IC50 of 77.7 nM. Take `CC1(C)CN(c2ncc(-c3ccc(-c4cn[nH]c4)cc3O)nn2)CCN1` [Cpd 56, 2-[3-(3,3-dimethylpiperazin-1-yl)-1,2,4-triazin-6-yl]-5-(1H-pyrazol-4-yl)phenol]: the IC50 turned out to be 654 nM.

Compound `COC[C@H]1CN(c2ncc(-c3ccc(-c4cn[nH]c4)cc3O)nn2)CCN1` [Cpd 53, 2-{3-[(3R)-3-(methoxymethyl)piperazin-1-yl]-1,2,4-triazin-6-yl}-5-(1H-pyrazol-4-yl)phenol] yielded an IC50 of 435 nM. Still for that read-out and setting: the value for `COc1cc(-c2ccc(-c3cnc(N4CCN[C@@H](C(C)C)C4)nn3)c(O)c2)nc(OC)n1` [Cpd 207, 5-(2,6-dimethoxypyrimidin-4-yl)-2-{3-[(3S)-3-(propan-2-yl)piperazin-1-yl]-1,2,4-triazin-6-yl}phenol] was 10 nM. On to `Oc1cc(-c2cn[nH]c2)ccc1-c1cnc(N2CCN3CCCC3C2)nn1` (stereo not shown) [Cpd 284, 2-[3-(hexahydropyrrolo[1,2-a]pyrazin-2(1H)-yl)-1,2,4-triazin-6-yl]-5-(1H-pyrazol-4-yl)phenol], for which the IC50 was 91.4 nM. The compound `CC(C)[C@@H]1CN(c2ncc(-c3ccc(-c4cn[nH]c4)cc3O)nn2)C[C@H](C)N1` [Cpd 216, 2-{3-[(3S,5R)-3-methyl-5-(propan-2-yl)piperazin-1-yl]-1,2,4-triazin-6-yl]-5-(1H-pyrazol-4-yl)phenol] gave a half-inhibitory concentration (IC50) of 218 nM. In turn, `[2H]C([2H])([2H])n1cc(-c2ccc(-c3cnc(N4C[C@@H](C)N[C@@H](C5CCC5)C4)nn3)c(O)c2)cn1` [Cpd 238, 2-{3-[(3S,5R)-3-cyclobutyl-5-methylpiperazin-1-yl]-1,2,4-triazin-6-yl}-5-[l-(^2H3)methyl-1H-pyrazol-4-yl]phenol] registered an IC50 of 55.1 nM. The compound `Cc1cn2cc(-c3cnc(-c4cnc(N5CCN(C)CC5)nn4)c(O)c3)cc(C)c2n1` [Cpd 126, 5-(2,8-dimethylimidazo[1,2-a]pyridin-6-yl)-2-[3-(4-methylpiperazin-1-yl)-1,2,4-triazin-6-yl]pyridin-3-ol] yielded an IC50 of 100 nM. `CCN1CCN(c2ncc(-c3ccc(-c4cc(F)c5nc(C)cn5c4)cc3O)nn2)C[C@H]1C` [Cpd 89, 2-{3-[(3R)-4-ethyl-3-methylpiperazin-1-yl]-1,2,4-triazin-6-yl}-5-(8-fluoro-2-methylimidazo[1,2-a]pyridin-6-yl)phenol] registered an IC50 of 6.7 nM.

For `Cn1nc2cc(-c3ccc(-c4cnc(N5CCN[C@H](C6(C)CC6)C5)nn4)c(O)c3)cnc2n1` [Cpd 242, 2-{3-[(3R)-3-(1-methylcyclopropyl)piperazin-1-yl]-1,2,4-triazin-6-yl}-5-(2-methyl-2H-[1,2,3]triazolo[4,5-b]pyridin-6-yl)phenol], the IC50 stood at 106 nM. Same read-out and setting: the value for `C[C@@H]1CN(c2ncc(-c3ccc(-c4ncns4)cc3O)nn2)C[C@H](C2CC2)N1` (single isomer, unassigned) [Cpd 269, 2-{3-[(3S,5R)-3-cyclopropyl-5-methylpiperazin-1-yl]-1,2,4-triazin-6-yl}-5-(1,2,4-thiadiazol-5-yl)phenol or 2-{3-[(3R,5S)-3-cyclopropyl-5-methylpiperazin-1-yl]-1,2,4-triazin-6-yl}-5-(1,2,4-thiadiazol-5-yl)phenol] was 53.9 nM. The compound `CC(C)CC1CN(c2ncc(-c3ccc(-c4cn[nH]c4)cc3O)nn2)CCN1` (stereo not shown) [Cpd 46, 2-{3-[3-(2-methylpropyl)piperazin-1-yl]-1,2,4-triazin-6-yl}-5-(1H-pyrazol-4-yl)phenol] returned an IC50 of 150 nM. Still for that read-out and setting: then “2-{3-[(3S,5R)-3-tert-butyl-5-methylpiperazin-1-yl]-1,2,4-triazin-6-yl}-5-(1,2,4-thiadiazol-3-yl)phenol [Cpd 254]”, with 556 nM.

Compound `Cc1ccc(-c2ccc(-c3cnc(N4CCN[C@@H](C(C)C)C4)nn3)c(O)c2)cn1` [Cpd 160, 5-(6-methylpyridin-3-yl)-2-{3-[(3S)-3-(propan-2-yl)piperazin-1-yl]-1,2,4-triazin-6-yl]phenol] gave an IC50 of 789 nM. For `C[C@@H]1CN(c2ncc(-c3ccc(-c4cc5nn(C)nc5cn4)cc3O)nn2)C[C@H](C)N1` [Cpd 198, 2-{3-[(3R,5S)-3,5-dimethylpiperazin-1-yl]-1,2,4-triazin-6-yl}-5-(2-methyl-2H-[1,2,3]triazolo[4,5-c]pyridin-6-yl)phenol], the IC50 was found to be 12.5 nM. Turning to `COc1nnc(-c2ccc(-c3cnc(N4CCN[C@@H](C(C)C)C4)nn3)c(O)c2)s1` [Cpd 204, 5-(5-methoxy-1,3,4-thiadiazol-2-yl)-2-{3-[(3S)-3-(propan-2-yl)piperazin-1-yl]-1,2,4-triazin-6-yl}phenol], half-maximal inhibition (IC50) was put at 162 nM.

Staying with this test, now noted: Table 3; selected compounds from WO/2019/191229 A1, same MSD assay.
Compound `Oc1cc(-c2cn[nH]c2)ccc1-c1cnc(N2CCN3CCC[C@H]3C2)nn1` [WO/2019/191229 A1 Cpd 116, reference compound] showed a half-inhibitory concentration (IC50) of 91.4 nM.
